Source: patent US20050037450A1, “Novel targets for lithium therapy” (Duke University, priority 2002, published 2005)
“And” between values parts separate entries of the source, which are not always exact repeats. Identical values can stand only once. Like-named read-outs stand apart in the source and are kept apart here.

Key:
Type in all cases: cell-based, S. cerevisiae
[1] = system: intracellular PAP in wild type yeast; assay: Intracellular PAP concentration by GST-PST binding assay, wild type yeast
Description: (§1) Yeast were grown in CM/ura^− containing 2% galactose to mid-log phase. The cultures were washed extensively and resuspended in the CM/ura^−/met^− media with the noted inclusions. PAP was measured using the ligand binding assay described in Experimental Procedures. Intracellular PAP concentrations were normalized to the amount of soluble protein extracted from the cultures.
For the assay of intracellular PAP concentrations, appropriate yeast strains were grown in CM/ura^− to mid-log phase (OD600=1.0). The cells were centrifuged and washed extensively in sterile water. The cells were resuspended in CM/ura^−/met^− containing methionine (20 μg/ml), lithium, or chlorate as appropriate. The cultures were incubated with shaking at 30° C. At various time points, 2 ml of culture was removed and centrifuged. The cells were washed with 1 ml of water. 250 μl was centrifuged and resuspended in 200 μl K-lysis buffer. 200 μl of glass beads were added, and the cells were disrupted by vigorous bead beating. The amount of soluble protein in this extract was determined using a Bradford dye-binding assay (BioRad, Hercules, Calif., United States of America) with bovine serum albumin as a standard. The remaining 750 μl of washed cells was spun down and resuspended in 250 μl of 2 N HClO4. This was incubated at 4° C. for 20 min, when 250 μl of 1.8 N KOH, 0.4 N KHCO3 were added to neutralize and precipitate the HClO4. The extract was centrifuged at 4° C. to remove the debris, and the supernatant was lyophilized using a rotary evaporator. The dried extracts were frozen at −80° C. for no more than one week prior to use. Extracts were reconstituted in 100 μL of 200 mM HEPES, pH 7.5 and again centrifuged to remove debris. 5′ [^32P] 3′, 5′ PAP was created as described (Spiegelberg, 1999). The GST-PST assay was performed by mixing 10 μL of standard PAP, treated as above, or 10 μL of sample diluted approximately 1:1000 in K-lysis buffer, with 10 μL of radiolabeled PAP (approximately 10,000 CPM). Eighty microliters of a reaction mix containing 100 mM HEPES, pH 7.0, 5 mM DTT, 0.2 mg/ml BSA, and 1 μg of GST-PST were added to start the binding reaction. The reactions were allowed to equilibrate for at least one hour at room temperature. Following incubation, 20 μl of a 50:50 slurry of glutathione sepharose in K-lysis buffer was added. The tubes were incubated with gentle mixing for 10 min at room temperature. The protein with bound PAP was pulled down by centrifugation for 2 min at room temperature. 80 μl of the supernatant, containing free PAP, was removed to a scintillation vial and 200 μl of K-lysis buffer was added to wash the resin. The tubes were centrifuged again and the 200 μl wash was transferred to the original scintillation vials. Radioactivity was determined by adding 5 ml of […] ECONO2™ scintillation fluid (Fisher Scientific, Hampton, N.H., United States of America) and counted in a liquid scintillation counter. The counts were converted to percent isotope bound, and a standard curve was prepared by plotting percent bound vs. the logarithm of the PAP concentration. […]
The GST-PST binding assay was used to determine relative intracellular PAP concentrations in yeast strains grown under various conditions. The PAP concentration determined in the binding assay was normalized to the total soluble protein in parallel extracts, and background was eliminated by reporting only the signal that was sensitive to in vitro degradation by purified recombinant Hal2p. […]

[2] = system: intracellular PAP in met14Δ cells
Description: as §1
(§2) For the assay of intracellular PAP concentrations, appropriate yeast strains were grown in CM/ura^− to mid-log phase (OD600=1.0). The cells were centrifuged and washed extensively in sterile water. The cells were resuspended in CM/ura^−/met^− containing methionine (20 μg/ml), lithium, or chlorate as appropriate. The cultures were incubated with shaking at 30° C. At various time points, 2 ml of culture was removed and centrifuged. The cells were washed with 1 ml of water. 250 μl was centrifuged and resuspended in 200 μl K-lysis buffer. 200 μl of glass beads were added, and the cells were disrupted by vigorous bead beating. The amount of soluble protein in this extract was determined using a Bradford dye-binding assay (BioRad, Hercules, Calif., United States of America) with bovine serum albumin as a standard. The remaining 750 μl of washed cells was spun down and resuspended in 250 μl of 2 N HClO4. This was incubated at 4° C. for 20 min, when 250 μl of 1.8 N KOH, 0.4 N KHCO3 were added to neutralize and precipitate the HClO4. The extract was centrifuged at 4° C. to remove the debris, and the supernatant was lyophilized using a rotary evaporator. The dried extracts were frozen at −80° C. for no more than one week prior to use. Extracts were reconstituted in 100 μL of 200 mM HEPES, pH 7.5 and again centrifuged to remove debris. 5′ [^32P] 3′, 5′ PAP was created as described (Spiegelberg, 1999). The GST-PST assay was performed by mixing 10 μL of standard PAP, treated as above, or 10 μL of sample diluted approximately 1:1000 in K-lysis buffer, with 10 μL of radiolabeled PAP (approximately 10,000 CPM). Eighty microliters of a reaction mix containing 100 mM HEPES, pH 7.0, 5 mM DTT, 0.2 mg/ml BSA, and 1 μg of GST-PST were added to start the binding reaction. The reactions were allowed to equilibrate for at least one hour at room temperature. Following incubation, 20 μl of a 50:50 slurry of glutathione sepharose in K-lysis buffer was added. The tubes were incubated with gentle mixing for 10 min at room temperature. The protein with bound PAP was pulled down by centrifugation for 2 min at room temperature. 80 μl of the supernatant, containing free PAP, was removed to a scintillation vial and 200 μl of K-lysis buffer was added to wash the resin. The tubes were centrifuged again and the 200 μl wash was transferred to the original scintillation vials. Radioactivity was determined by adding 5 ml of […] ECONO2™ scintillation fluid (Fisher Scientific, Hampton, N.H., United States of America) and counted in a liquid scintillation counter. The counts were converted to percent isotope bound, and a standard curve was prepared by plotting percent bound vs. the logarithm of the PAP concentration. This standard curve was used to back-calculate the PAP concentration in the unknown samples.
(§3) The GST-PST binding assay was used to determine relative intracellular PAP concentrations in yeast strains grown under various conditions. The PAP concentration determined in the binding assay was normalized to the total soluble protein in parallel extracts, and background was eliminated by reporting only the signal that was sensitive to in vitro degradation by purified recombinant Hal2p. The assay was characterized further by analyzing the intracellular PAP concentration of wild type yeast grown in the presence of lithium.

[3] = system: intracellular PAP in met3Δ cells
Description: as §1, §2, §3

[4] = system: Wild type yeast; assay: Lithium inhibition of yeast growth (OD600), wild type; conditions: Saccharomyces cerevisiae
Description: FIG. 7 is a graph showing met3Δ and met14Δ strains are lithium resistant. Wild type, met3Δ, and met14Δ yeast were resuspended at 5×10^4/ml in CM/ura^− containing 2% dextrose and 1.25 μg/ml methionine. Growth at various concentrations of LiCl was measured after a 24 hr incubation at 30° C. The growth is plotted relative to growth in media lacking lithium.
FIG. 10 is a graph showing methionine supplementation induces lithium resistance. Wild type yeast were inoculated at 5×10^4 cells per ml into synthetic media with or without methionine containing the noted concentration of LiCl. Growth was assayed by spectrophotometry following 48 hrs of growth at 30° C.
Wild type yeast were grown in CM/ura^− containing 2% galactose to mid-log phase. The cultures were washed and resuspended at 5×10^5 cells/ml in CM/ura^−/met^− containing the noted lithium and chlorate concentrations. Following growth for 24 hr at 30° C., the cultures were resuspended, and growth was measured by determining the absorbance at λ=600 nm.
Since methionine effects transcriptional down regulation of the MET3 and MET14 gene products in wild type yeast, the relative lithium sensitivities of the met3Δ and met14Δ strains were assayed in growth media containing reduced methionine (1.25 μg/ml). The use of limited methionine allowed for the comparison of the relative sensitivity to lithium of yeast expressing (wild type) or lacking (met3Δ and met14Δ) PAPS synthetase activities.
The yeast system was used to determine if chlorate could be used to effect a relevant decrease in the accumulation of PAP in the presence of lithium. […] The decrease in PAP accumulation was physiologically relevant since chlorate produced a protective effect in the presence of lithium. […] When 25 mM NaClO3 is included in the culture medium, the growth inhibition is abated, with the IC50 increasing to approximately 80 mM LiCl (FIG. 11)

[Li] [lithium]
Fold increase of PAP concentration [1]: at least 85.8 fold | Intracellular PAP concentration ([1]; wild type, 100 mM LiCl, 8 hr, absence of methionine, normalized to soluble protein): 42.9 nmol/mg | Fold increase of PAP concentration ([2]; met14Δ expressing hPAPSS2, 100 mM lithium vs absence of lithium): ≥ 65.4 fold | Intracellular PAP concentration ([2]; met14Δ expressing hPAPSS2, 100 mM lithium, eight hours): ~32.8 nmol/mg and 32.7 nmol/mg | Intracellular PAP concentration ([2]; met14Δ with empty vector, independent of methionine and lithium concentration, data not shown): less than 0.5 nmol PAP/mg soluble protein | Fold increase of PAP concentration ([3]; met3Δ expressing hPAPSS2, 100 mM lithium vs absence of lithium): ≥ 72.4 fold | Intracellular PAP concentration ([3]; met3Δ with empty vector, independent of methionine and lithium concentration, data not shown): less than 0.5 nmol PAP/mg soluble protein | IC50 ([4]; CM/ura− 2% dextrose, 1.25 μg/ml methionine, 24 hr at 30° C., growth relative to media lacking lithium, read-out: IC50 of lithium for growth inhibition): ~40 mM | IC50 ([4]; CM/ura−/met−, 24 hr at 30° C., 25 mM NaClO3 in culture medium, read-out: IC50 of LiCl for growth inhibition with chlorate): ~80 mM | IC50 ([4]; synthetic media without methionine, 48 hrs at 30° C., read-out: IC50 for lithium in met− media): ~40 mM
